The record followed here is US9527830B2 (Merck Sharp & Dohme Corp., priority 2011, dated 2016).

For the first assay, the target named is T1, hROMK1 (Kir1.1) (Homo sapiens, UniProt P48048).
T1 construct: expressed in transfected cells
T1 sequence (P48048 1-391): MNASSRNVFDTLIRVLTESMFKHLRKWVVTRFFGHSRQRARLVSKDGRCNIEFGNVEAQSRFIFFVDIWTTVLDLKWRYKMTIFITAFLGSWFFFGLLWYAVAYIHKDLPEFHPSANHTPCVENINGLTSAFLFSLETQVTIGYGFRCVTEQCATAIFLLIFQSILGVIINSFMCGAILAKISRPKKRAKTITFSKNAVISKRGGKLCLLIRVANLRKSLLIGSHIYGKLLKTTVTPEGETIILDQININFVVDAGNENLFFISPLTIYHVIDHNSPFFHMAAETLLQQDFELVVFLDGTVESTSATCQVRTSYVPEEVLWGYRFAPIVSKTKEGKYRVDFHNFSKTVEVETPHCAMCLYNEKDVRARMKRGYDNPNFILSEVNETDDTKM
As to the kind of experiment: ^86Rb^+ Efflux Assay. It is filed as cell-based. The following applies: CHO-DHFR- cells stably expressing hROMK1; potency ranges. How it is done:
(§1) Several assays may be used to measure functional inhibition of the ROMK channel by compounds of the instant invention. One primary assay that can be used is a functional ^86Rb^+ efflux assay that measures the ability of ROMK to permeate ^86Rb^+, in the absence or presence of test compound. Under control conditions, cells loaded with ^86Rb^+ and incubated in Rb^+-free medium display a time-dependent efflux of the isotope, the rate of which depends on number of functional channels. When cells are incubated in the presence of a channel inhibitor, efflux of ^86Rb^+ is prevented in a concentration-dependent manner, and IC50 values of inhibition by compounds can be accurately determined. This assay has been established with cell lines expressing either human, rat or dog ROMK channels, and can operate in 96- or 384-well format. Importantly, the human, rat, and dog ^86Rb^+ efflux assays can be carried out in the presence of up to 100% serum allowing, therefore, an accurate estimation of the effect of protein binding on the inhibitory activity of compounds of interest. Another ROMK functional assay makes use of the ability of thallium to permeate through open ROMK channels and increase the fluorescence of a dye previously loaded into the cells. Under control conditions, cells loaded with dye and exposed to thallium-containing medium display a time-dependent increase in fluorescence, the rate of which depends on number of functional channels. When cells are incubated in the presence of a channel inhibitor, the increase in fluorescence is attenuated in a concentration-dependent manner, and IC50 values of inhibition by compounds can be accurately determined. This assay has been established with cell lines expressing either human, or rat ROMK channels, and operates in 384-well format. Another assay for evaluation of the compounds of the instant invention and for evaluation of mechanism of action of compounds of Formula I relies on the measurement of the electrical current that is generated as potassium permeates through the channel. For these electrophysiological experiments, three different platforms, IonWorks, QPatch, or manual patch clamp, are used, depending on the experimental protocol under consideration. IonWorks operates in a 384-well format and allows accurate determination of IC50 values for inhibitors.
CHO-DHFR-cells stably expressing hROMK1 (Kir1.1) were grown at 37° C. in a 10% CO2 humidified incubator in Iscove's Modified Dulbecco's Medium (Gibco 12440) supplemented with HT Supplement, Penicillin/Streptomycin/Glutamine, G418 (500 μg/ml) and 10% FBS. Cells were seeded in Sterile and Tissue Culture Treated Packard CulturPlate White Opaque Microplates at a concentration of 5.0E5-7.0E5 cells/ml—PerkinElmer 6005680 (96-well); Corning 3707 (384 well) in complete media containing 1.5 μCi/ml Rubidium-86. Cells were incubated in 37° C.-10% CO2 incubator overnight. On the day of the experiment, the media was removed and cells washed with low K assay buffer. ^86Rb^+ efflux was initiated after addition of assay buffer±test compound followed by 35 min incubation at room temperature. ROMK-sensitive component of efflux was defined in the presence of 10 mM BaCl2. Assay buffer was removed and transferred to a plate and cells were solubilized in the presence of SDS. Radioactivity associated with assay and cell plate was determined.
• 1. Removed cell media and washed cells with low K assay buffer (126.9 mM NaCl, 4.6 mM KCl, 2 mM CaCl2, 1 mM MgCl2, 10 mM Hepes/NaOH; pH 7.4) • 200 μl for 96-well plate; 70 μl for 384-well plate • 2. Added assay buffer (121.5 mM NaCl, 10 mM KCl, 2 mM CaCl2, 1 mM MgCl2, 10 mM Hepes/NaOH; pH 7.4)±test compound to cells • 100 μl for 96-well plate; 50 μl for 384-well plate • 3. Incubated at ambient temperature (22-24° C.) for 35 min • 4.
Regarding `Cc1c(CCN2CCC(NCc3ccc(C#N)c(F)c3)CC2)ccc2c1COC2=O` [Example 90, 2-Fluoro-4-[({1-[2-(4-methyl-1-oxo-1,3-dihydro-2-benzofuran-5-yl)ethyl]piperidin-4-yl}amino)methyl]benzonitrile], the IC50 – broadly, the concentration needed to halve the response being measured – is at most 500 nM. `Cc1c(C(O)CC2CCN(C[C@H](O)c3ccc4c(c3C)COC4=O)CC2)ccc2c1COC2=O` (stereo partly drawn) [Example 86, 5-[(1R)-1-Hydroxy-2-{4-[2-hydroxy-2-(4-methyl-1-oxo-1,3-dihydro-2-benzofuran-5-yl)ethyl]piperidin-1-yl}ethyl]-4-methyl-2-benzofuran-1(3H)-one]: the IC50 was at most 200 nM. `Cc1c(CCN2CCC(NCc3ccc4nonc4c3)CC2)ccc2c1COC2=O` [Example 89, 5-(2-{4-[(2,1,3-Benzoxadiazol-5-ylmethyl)amino]piperidin-1-yl}ethyl)-4-methyl-2-benzofuran-1(3H)-one] came in with an IC50 of at most 500 nM.

For a further assay, the target named is T2, hROMK (hKir1.1) (Homo sapiens, UniProt P48048).
T2 construct: expressed in transfected cells
T2 sequence (P48048 1-391): T1 sequence (P48048 1-391)
As to the kind of experiment: Thallium Flux Assay (FluxOR, FLIPR-Tetra). The following applies: HEK293 cells stably expressing hROMK; potency ranges. Format: cell-based. As to the method: as §1
HEK293 cells stably expressing hROMK (hKir1.1) were grown at 37° C. in a 10% CO2 humidified incubator in complete growth media: Dulbecco's Modified Eagle Medium supplemented with non-essential amino acids, Penicillin/Streptomycin/Glutamine, G418 and FBS. At >80% confluency, media was aspirated from the flask and rinsed with 10 ml Calcium/Magnesium-free PBS. 5 ml of 1× trypsin (prepared in Ca/Mg Free PBS) was added to T-225 flask and flask returned to 37° C./CO2 incubator for 2-3 minutes. To dislodge the cell, the side of the flask was gently banged by hand. Cells were completely triturated and then transferred to 25 ml complete media, and centrifuged at 1,500 rpm for 6 min followed by resuspension in complete growth media and cell concentration determined. For typical re-seeding, 4E6 cells/T-225 flask attained >80% confluency in 4 days. Under ideal growth conditions and appropriate tissue culture practices, this cell line was stable for 40-45 passages.
FluxOR™ Kit Components (Invitrogen F10017)
• FluxOR™ Reagent (Component A) • FluxOR™ Assay Buffer (Component B)—10× Concentrate • PowerLoad™ Concentrate (Component C)—100× Concentrate • Probenecid (Component D)—Lyophilized sample was kept at −20° C. Water soluble, 100× after solubilization in 1 ml water. Store at 4° C. • FluxOR™ Chloride-free Buffer (Component E)—5× Concentrate • Potassium sulfate (K2SO4) Concentrate (Component F)—125 mM in water. Stored at 4° C. • Thallium sulfate (Tl2SO4) Concentrate (Component G)—50 mM in water. […]
Take `Cc1c(C(O)CC2CCN(C(=O)Cc3ccc(-n4cnnn4)nc3)CC2)ccc2c1COC2=O` (racemic) [Example 110, 5-[1-Hydroxy-2-(1-{[6-(1H-tetrazol-1-yl)pyridin-3-yl]acetyl}piperidin-4-yl)ethyl]-4-methyl-2-benzofuran-1(3H)-one]: the IC50 is at most 100 nM.

Turning to `Cc1c(SCC2CCN(C[C@H](O)c3ccc4c(c3C)COC4=O)CC2)ccc2c1COC2=O` [Example 94, 5-[({1-[(2R)-2-Hydroxy-2-(4-methyl-1-oxo-1,3-dihydro-2-benzofuran-5-yl)ethyl]piperidin-4-yl}methyl)sulfanyl]-4-methyl-2-benzofuran-1(3H)-one], the IC50 is at most 100 nM. The compound `Cc1c([C@@H](O)CN2CCC(C[S+]([O-])c3ccc4c(c3)CCOC4=O)CC2)ccc2c1COC2=O` (stereo partly drawn) [Example 104, 6-[({1-[(2R)-2-Hydroxy-2-(4-methyl-1-oxo-1,3-dihydro-2-benzofuran-5-yl)ethyl]piperidin-4-yl}methyl)sulfinyl]-3,4-dihydro-1H-isochromen-1-one] had an IC50 of at most 100 nM. With `Cc1c(CCN2CCC(NCc3ccc(C#N)c(F)c3)CC2)ccc2c1COC2=O` [Example 90, 2-Fluoro-4-[({1-[2-(4-methyl-1-oxo-1,3-dihydro-2-benzofuran-5-yl)ethyl]piperidin-4-yl}amino)methyl]benzonitrile], the IC50 is at most 200 nM. The compound `Cc1c([C@@H](O)CN2CCC(Nc3ccc(C#N)cn3)CC2)ccc2c1COC2=O` [Example 111, (R)-6-(1-(2-Hydroxy-2-(4-methyl-1-oxo-1,3-dihydroisobenzofuran-5-yl)ethyl)piperidin-4-ylamino)nicotinonitrile] displayed an IC50 of at most 100 nM. On the same count and under the same terms, as for `Cc1c(C(O)CC2CCN(C[C@H](O)c3ccc4c(c3C)COC4=O)CC2)ccc2c1COC2=O` (stereo partly drawn) [Example 86, 5-[(1R)-1-Hydroxy-2-{4-[2-hydroxy-2-(4-methyl-1-oxo-1,3-dihydro-2-benzofuran-5-yl)ethyl]piperidin-1-yl}ethyl]-4-methyl-2-benzofuran-1(3H)-one], the figure is at most 100 nM; as for `Cc1c(CCN2CCC(NCc3ccc4nonc4c3)CC2)ccc2c1COC2=O` [Example 89, 5-(2-{4-[(2,1,3-Benzoxadiazol-5-ylmethyl)amino]piperidin-1-yl}ethyl)-4-methyl-2-benzofuran-1(3H)-one], at most 200 nM. For the compound `Cc1c([C@@H](O)CN2CCC(C)(COc3ccc(C#N)cn3)CC2)ccc2c1COC2=O` [Example 107], the IC50 is at most 100 nM. With `Cc1c([C@@H](O)CN2CCC(CS(=O)(=O)c3ccc4c(c3)CCOC4=O)CC2)ccc2c1COC2=O` [Example 109, 6-[({1-[(2R)-2-Hydroxy-2-(4-methyl-1-oxo-1,3-dihydro-2-benzofuran-5-yl)ethyl]piperidin-4-yl}methyl)sulfonyl]-3,4-dihydro-1H-isochromen-1-one], the IC50 was at most 100 nM. Still for that read-out and setting: as for `Cc1c([C@@H](O)CN2CCC(CSc3ccc4c(c3)CCOC4=O)CC2)ccc2c1COC2=O` [Example 103, 6-[({1-[(2R)-2-Hydroxy-2-(4-methyl-1-oxo-1,3-dihydro-2-benzofuran-5-yl)ethyl]piperidin-4-yl}methyl)sulfanyl]-3,4-dihydro-1H-isochromen-1-one], the figure is at most 200 nM. On the same count and under the same terms, as for `Cc1c([C@@H](O)CN2[C@@H]3CC[C@H]2CC(Nc2ccc(C#N)cn2)C3)ccc2c1COC2=O` (stereo partly drawn) [Example 112, 6-((1R,5S)-8-((R)-2-Hydroxy-2-(4-methyl-1-oxo-1,3-dihydroisobenzofuran-5-yl)ethyl)-8-azabicyclo[3.2.1]octan-3-ylamino)nicotinonitrile], the figure is at most 100 nM; as for `Cc1c([C@@H](O)CN2CCC(F)(COc3ccc(C#N)cn3)CC2)ccc2c1COC2=O` [Example 102, 6-({4-Fluoro-1-[(2R)-2-hydroxy-2-(4-methyl-1-oxo-1,3-dihydro-2-benzofuran-5-yl)ethyl]piperidin-4-yl}methoxy)pyridine-3-carbonitrile], at most 200 nM.

Turning to `Cc1c([C@@H](O)CN2CCC(CSc3ccc(C#N)cn3)CC2)ccc2c1COC2=O` [Example 100, 6-[({1-[(2R)-2-Hydroxy-2-(4-methyl-1-oxo-1,3-dihydro-2-benzofuran-5-yl)ethyl]piperidin-4-yl}methyl)sulfanyl]pyridine-3-carbonitrile], the IC50 is at most 100 nM. On the same count and under the same terms, with `Cc1c([C@@H](O)CN2CCC(C[S+]([O-])c3ccc4c(c3C)COC4=O)CC2)ccc2c1COC2=O` (stereo partly drawn) [Example 96, 5-[({1-[(2R)-2-hydroxy-2-(4-methyl-1-oxo-1,3-dihydro-2-benzofuran-5-yl)ethyl]piperidin-4-yl}methyl)sulfinyl]-4-methyl-2-benzofuran-1(3H)-one] the figure was at most 100 nM; with `Cc1c([C@@H](O)CN2CCC(CS(=O)(=O)c3ccc4c(c3C)COC4=O)CC2)ccc2c1COC2=O` [Example 99], at most 100 nM.

In turn, `Cc1c([C@@H](O)CN2CC3C(COc4ccc(C#N)cn4)C3C2)ccc2c1COC2=O` (stereo partly drawn) [Example 106, 6-({3-[(2R)-2-Hydroxy-2-(4-methyl-1-oxo-1,3-dihydro-2-benzofuran-5-yl)ethyl]-3-azabicyclo[3.1.0]hex-6-yl}methoxy)pyridine-3-carbonitrile] displayed an IC50 of at most 100 nM. Same read-out and setting: with `Cc1c(OCC2CCN(C[C@H](O)c3ccc4c(c3C)COC4=O)CC2)ccc2c1COC2=O` [Example 95, 5-({1-[(2R)-2-Hydroxy-2-(4-methyl-1-oxo-1,3-dihydro-2-benzofuran-5-yl)ethyl]piperidin-4-yl}methoxy)-4-methyl-2-benzofuran-1(3H)-one] the figure was at most 100 nM; with `Cc1c([C@@H](O)CN2CCC(CN(C)c3ccc(C#N)cn3)CC2)ccc2c1COC2=O` [Example 93, 6-[({1-[(2R)-2-Hydroxy-2-(4-methyl-1-oxo-1,3-dihydro-2-benzofuran-5-yl)ethyl]piperidin-4-yl}methyl)(methyl)amino]pyridine-3-carbonitrile], at most 200 nM.
